According to patent US20220098184A1, “SOLID DISPERSION FORMULATIONS OF AN FXR AGONIST” (Terms Pharmaceuticals, Inc., priority 2020, published 2022):

Tests used:
[1] = Solubility study in phosphate buffer (pH=6.8), agitated at 37° C., filtrate measured by UV-vis; format: physicochemical; settings: phosphate buffer pH 6.8, 37° C.
Method: Compound I, Compound U/Kollidon® VA 64 solid dispersion prepared according to Example 1, and Compound U/Soluplus® solid dispersion prepared according to Example 1 were dissolved in phosphate buffer (pH=6.8) and the resulting mixtures were agitated at 37° C. Samples were taken at 15 minutes, 30 minutes, 60 minutes, 120 minutes, 4 hours, 8 hours, and 24 hours.

[2] = Phase 1 randomized, open-label study in healthy subjects (PK, safety and tolerability); format: in vivo, human; settings: all treatment groups
Method: A Phase 1 randomized, open-label study was conducted in 16 healthy subjects. PK samples of Compound I were obtained up to 72 hours after single oral administration of: 1) 5-mg strength and 25-mg strength tablets (prepared according to Example 3) in 16 fasted subjects; 2) 25-mg strength capsule (containing 25 mg Compound I not in a solid dispersion) in 8 fasted subjects; and 3) 5-mg strength tablet (prepared according to Example 3) in 8 subjects after a high-fat, high calorie meal. Safety and tolerability of the tablets and capsule were also assessed.

[3] = Tissue distribution of Compound I (liver vs other tissues); format: in vivo; settings: liver relative to plasma, kidney, lungs, heart, and skin, read-out: Concentration in the liver relative to other tissues
[4] = BCS classification / aqueous solubility; format: physicochemical

- Solubility in phosphate buffer (in words) [1]: low solubility
- Concentration of Compound I ([1]; 15 min): 86 ng/mL
- Concentration of Compound I ([1]; 30 min): 166 ng/mL
- Concentration of Compound I ([1]; 60 min): 172 ng/mL
- Concentration of Compound I ([1]; 120 min): 188 ng/mL
- Concentration of Compound I ([1]; 4 hrs): 166 ng/mL
- Concentration of Compound I ([1]; 8 hrs): 207 ng/mL
- Concentration of Compound I ([1]; 24 hrs): 250 ng/mL
- Kp [3]: ~20
- Aqueous solubility (in words) [4]: low aqueous solubility
- BCS class [4]: BCS class II
SMILES: Cn1cc(C(=O)O)c2ccc(N3CCC(OCc4c(-c5c(Cl)cccc5Cl)noc4C4CC4)CC3)cc21 [Compound I, 6-(4-((5-cyclopropyl-3-(2,6-dichlorophenyl)isoxazol-4-yl)methoxy)piperidin-1-yl)-1-methyl-1H-indole-3-carboxylic acid]
- Safety and tolerability [2]: safe and well tolerated
